Source: paper doi:10.1101/2024.05.06.592687v1 (bioRxiv, 2024)
Entries after “also recorded” stand apart in the source; their conditions may differ.

Key:
[1] = format: physicochemical; conditions: 800 μM
[2] = Negative staining transmission electron microscopy of peptide structures; format: physicochemical; conditions: for Diameter / Structures comments / Diameter, Tight / Diameter, Wide / Pitch length / Width: negative staining TEM; for Structure (TEM): negative staining, 1% uranyl acetate
[3] = Hexapeptide aggregative properties; format: physicochemical; conditions: for Aggregation properties, in words: 800 μM (16p: 288 μM)
[4] = Reversibility of polymerized structures by dilution; format: physicochemical; conditions: polymerized at 2x Cr, diluted 8-fold to 0.25 Cr
[5] = Critical assembly concentration; format: physicochemical; conditions: sedimentable versus total peptide concentration
[6] = Hexapeptide amyloidogenicity; format: physicochemical; conditions: 800 μM (16p: 288 μM)
[7] = Solubility of hexapeptides in water; format: physicochemical; conditions: deionized water
[8] = Cryo-EM of peptide sample; format: physicochemical; conditions: data not shown

Substance	Classification of the peptide (aggregative / amyloid / soluble), in words [1]	Structure (TEM) [2]	Aggregation properties, in words [3]	Structures comments [2]	other results
KYIQVV [2p]	aggregative; also recorded: strong aggregation potential	structures resembling ribbons; also recorded: Ribbons/ Filaments			Diameter [2]: 10 ± 2 nm
VVQKYI [6p]	entirely soluble; also recorded: non-aggregative		very weak		
KVQIVY [10p]	aggregative	structures resembling ribbons; also recorded: Rather flat and tight ribbons		Heterogeneous	
KQIVYV [20p]	aggregative	fibrillar structures; also recorded: Filament/strand bundles		Homogeneous / bundles	Diameter [2]: 13 ± 2 nm
VKYQVI [3p]	entirely soluble; also recorded: non-aggregative		very weak		
VQKIYV [4p]	entirely soluble; also recorded: non-aggregative		no		
QVIKYV [23p]	entirely soluble; also recorded: non-aggregative		very weak		
QKVVYI [18p]	amyloid	fibrillar structures		Heterogeneous	Reversion of structures after dilution, in words [4]: almost total reversion; Slope of the Cr linear regression [5]: 0.84; Diameter, Tight [2]: 9 nm; Diameter, Wide [2]: 18 nm; Pitch length [2]: 107 ± 14 nm; Width [2]: 29 ± 7 nm; Structure (TEM) ([2]; listed as 18p*): Twisted ribbons/fibers
QKVYIV [19p]	aggregative	fibrillar structures; also recorded: Tangle ribbons		Few twists and bundles	Width [2]: 11± 3 nm
VQVKYI [21p]	amyloid; also recorded: amyloidogenic character	globular/ovoid structures		Variable size / aggregates	Reversion of structures after dilution, in words [4]: almost total reversion; Diameter [2]: 25 ± 6 nm; Structure (TEM) ([2]; listed as 21p*): Globular/ovoid
YIVVQK [13p]	entirely soluble		no		
VKVIYQ [7p]	aggregative; also recorded: strong aggregation potential	fibrillar structures; also recorded: Twisted fibers		Homogeneous perpendicular breaks	Diameter [2]: 17 ± 4 nm; Pitch length [2]: 138 ± 12 nm; Amyloidogenicity by Thioflavin T fluorescence, in words [6]: without fluorescence
VQIVYK [ß1, reference compound]		fibrillar structures		Rather homogeneous	Diameter [2]: 9 ± 2 nm; Pitch length [2]: 105 ± 20 nm; Diameter ([2]; listed as β1): ~10 nm; Pitch length ([2]; listed as β1): ~100 nm; Structure (TEM) ([2]; listed as ß1*): Double/Twisted fibers
KYVIQV [15p]	aggregative; also recorded: strong aggregation potential	structures resembling ribbons; also recorded: Twisted ribbons		Rather homogeneous	Reversion of structures after dilution, in words [4]: only partial; Slope of the Cr linear regression [5]: 1.1; Pitch length [2]: 196 ± 34 nm; Width [2]: 21 ± 2 nm
QKYIVV [8p]	entirely soluble		no		
VKVYIQ [11p]	amyloid; also recorded: amyloidogenic character	fibrillar structures			Reversion of structures after dilution, in words [4]: almost total reversion; Slope of the Cr linear regression [5]: 0.74; Diameter [2]: 5 ± 1 nm; Structure (TEM) ([2]; listed as 11p*): Stringy filaments/fibers
VQVYKI [22p]	aggregative; also recorded: soluble	fibrillar structures; also recorded: Twisted ribbons bundles/fibers		Highly heterogeneous	
IKQVYV [5p]	entirely soluble; also recorded: non-aggregative		very weak		
YQVIVK [17p]	aggregative	structures resembling ribbons		Flat/short tangled, heterogeneous	Width [2]: 14 ± 2 nm; Amyloidogenicity by Thioflavin T fluorescence, in words [6]: without fluorescence
VQVIYK [12p]	amyloid	fibrillar structures		Twisting of at least four filaments	Reversion of structures after dilution, in words [4]: almost total reversion; Diameter, Tight [2]: 7 nm; Diameter, Wide [2]: 15 nm; Pitch length [2]: 177 ± 26 nm; Structure (TEM) ([2]; listed as 12p*): Twisted Stringy filaments/fibers
KVQYVI [14p]	entirely soluble		no		
YQVKIV [16p]	strong aggregation potential	structures resembling ribbons; also recorded: Rather ribbons	strong aggregation	Very homogeneous, perpendicular breaks	Aggregation Threshold ([3]; 16p studied at ~290 μM (288 μM) due to poor solubility in water): 17 µM; Pitch length [2]: 44 ± 4 nm; Width [2]: 22±3 nm; Amyloidogenicity by Thioflavin T fluorescence, in words [6]: not amyloidogenic; Solubility in water, in words [7]: poor solubility in water; Solubility in water, in words ([7]; listed as 16p*): low solubility in water
IYVQKV [9p]	entirely soluble; also recorded: non-aggregative	crystal structures	no		Structures seen by Cryo-EM [8]: absence of structures
